In BindingDB's records for doi:10.1021/jm950874+ (National Institutes of Health, 1996) one finds IC50 data, which are given here for 18 compounds.

pIC50: −log10 of the molar value.

The test has as its target T1, Dimer of Gag-Pol polyprotein [489-587] (Human immunodeficiency virus 1, UniProt P12497).
T1 construct: 489-587
Kind of test: Protease Inhibition Assay. To be noted: pH 6.5; 37 °C. The protocol:
Sensitivity of HIV-1 protease activity to protease inhibitors was determined by a peptide substrate cleavage assay. Protease products were analyzed on a reverse-phase high-pressure liquid chromatograph.
Regarding `O=c1oc2ccccc2c(O)c1C(c1ccc2c(c1)OCO2)c1c(O)c2ccccc2oc1=O` [Cancer Chemotherapy National Service Center (CCNSC) compound 373937], the pIC50 was 4.52.
`O=C(Oc1ccccc1)N(CCO)C(c1ccccc1)C(O)c1ccccc1` (stereo not drawn) [phenyl N-(2-hydroxy-1,2-diphenylethyl)-N-(2-hydroxyethyl)carbamate] showed a negative logarithm of the IC50 (pIC50) of 4.49.
Consider `O=c1oc2cccc(O)c2c(O)c1Cc1ccccc1`, for which the pIC50 is 5.22.
Then `CC(C)CC(NC(=O)OCc1ccccc1)(C(=O)O)C(=O)O` [Cancer Chemotherapy National Service Center (CCNSC) compound 20143], with 4.77.
For `O=c1oc2ccccc2c(O)c1C(c1ccc(C(c2c(O)c3ccccc3oc2=O)c2c(O)c3ccccc3oc2=O)cc1)c1c(O)c2ccccc2oc1=O` [3-({4-[bis(4-hydroxy-2-oxo-2H-chromen-3-yl)methyl]phenyl}(4-hydroxy-2-oxo-2H-chromen-3-yl)methyl)-4-hydroxy-2H-chromen-2-one], the negative logarithm of the IC50 (pIC50) is 5.77.
`O=C1C(=O)c2ccccc2C(=O)C1=C(c1ccc(C(C2C(=O)C(=O)c3ccccc3C2=O)C2C(=O)C(=O)c3ccccc3C2=O)cc1)c1c(O)c(O)c2ccccc2c1O` (stereo not drawn) [2-({4-[bis(3-hydroxy-1,4-dioxo-1,4-dihydronaphthalen-2-yl)methyl]phenyl}(3-hydroxy-1,4-dioxo-1,4-dihydronaphthalen-2-yl)methyl)-3-hydroxy-1,4-dihydronaphthalene-1,4-dione] had a pIC50 of 6.12.
Consider `CCCC(=O)c1c(O)c(C)c(O)c(CC2C(=O)C(C(=O)CCC)C(=O)C(C)(C)C2=O)c1O` (stereo not drawn) [2-butanoyl-6-[(3-butanoyl-2,4,6-trihydroxy-5-methylphenyl)methyl]-3,5-dihydroxy-4,4-dimethylcyclohexa-2,5-dien-1-one], for which the negative logarithm of the IC50 (pIC50) is 4.59.
`C[C@]12CCC(=O)C=C1CC[C@@H]1[C@H]2[C@@H](O)C[C@@]2(C)[C@@H]1CC[C@]2(O)C(=O)COC(=O)CCC(=O)O` [Cancer Chemotherapy National Service Center (CCNSC) compound 7576] showed a pIC50 of 4.57.
With `O=C1C(=O)c2ccccc2C(=O)C1=C(c1ccc(Cl)cc1Cl)c1c(O)c(O)c2ccccc2c1O` [2-[(2,4-dichlorophenyl)(3-hydroxy-1,4-dioxo-1,4-dihydronaphthalen-2-yl)methyl]-3-hydroxy-1,4-dihydronaphthalene-1,4-dione] the figure was 4.62.
With `CC(=O)NC(Cc1ccsc1)(C(=O)O)C(=O)O` [2-acetamido-2-(thiophen-3-ylmethyl)propanedioic acid], the pIC50 is 4.64.
Then `O=c1oc2c(-c3ccccc3)cccc2c(O)c1-c1ccccc1` [Cancer Chemotherapy National Service Center (CCNSC) compound 251150], with 4.89; and `CCCCCCc1cc2c(cc1O)OC(=O)C(C(c1ccccc1)c1c(O)c3cc(CCCCCC)c(O)cc3oc1=O)C2O` (stereo not drawn), with 6.49; and `O=C1Oc2ccccc2C(O)C1Sc1c(O)c2ccccc2oc1=O` (stereo not drawn) [Cancer Chemotherapy National Service Center (CCNSC) compound 41234], with 4.68.
With `CC(C)c1cccc(C(C)C)c1NC(=O)C(=O)CC(=O)CC(c1ccccc1)c1c(O)c2ccccc2oc1=O` (stereo not drawn) [N-[2,6-bis(propan-2-yl)phenyl]-6-(4-hydroxy-2-oxo-2H-chromen-3-yl)-2,4-dioxo-6-phenylhexanamide] the figure was 4.51.
For `CC(=O)OC1CCC2(C)C(C)C(C)CCC2(O)C1O` (stereo not drawn) [Cancer Chemotherapy National Service Center (CCNSC) compound 112500], the pIC50 is 4.80.
Then `O=c1oc2ccccc2c(O)c1-c1ccccc1` [Cancer Chemotherapy National Service Center (CCNSC) compound 251152], with 4.38; and `CC1(C)CC[C@]2(C(=O)O)CC[C@@]3(C)C(=CC[C@H]4[C@@]5(C)C[C@H](O)[C@H](O)[C@](C)(C(=O)O)[C@H]5CC[C@]43C)[C@@H]2C1` [(2S,3R,4R,4aS,6aR,6bR,8aS,12aS,14aS,14bR)-2,3-dihydroxy-4,6a,6b,11,11,14b-hexamethyl-1,2,3,4,4a,5,6,6a,6b,7,8,8a,9,10,11,12,12a,14,14a,14b-icosahydropicene-4,8a-dicarboxylic acid], with 4.46; and `O=C1C2=C(C(=O)c3ccccc31)C(O)(S(=O)(=O)O)C(O)(S(=O)(=O)O)C1N=CC=CC21` (stereo not drawn) [11,12-dihydroxy-5,10-dioxo-4a,5,10,11,12,12a-hexahydro-1-azatetraphene-11,12-disulfonic acid], with 5.70.
